Laboratory results taken from patent US6410575B1, “Viral treatment” (The Procter & Gamble Company, priority 1999, dated 2002).
≈ marks a conversion by molar mass, not a printed value. Where “and” joins values, the source holds several entries; their conditions need not be identical. Equal entries are not always repeated. Where two headings read alike, the source gives them in different places.

Columns and labels:
HEPG2 2.2.15 = assay: Toxicity values in the hepatitis B test; type: cell-based; design: Toxicity Values, sample / Toxicity Values, mean: unit not given here
hepatitis B = assay: In vitro virus production test of hepatitis B, HEPG2 2.2.15; type: cell-based
vero cells = assay: Herpes simplex testing, toxicity (TC50); design: unit not given beside the values
Curvularia lunata = assay: Anti-fungal activity, MIC (NCCLS M-27A based); type: cell-based; details: growth inhibited or reduced at least 90%
Description: (§1) It was active against Cryptococcus neoformans and Curvularia lunata. The cidal activity for the C. neoformans is high enough that it is clear […] against this yeast. This test was conducted using a method based upon NCCLS reference method M-27A published in 1997. Solvent, medium and growth controls were set-up with the tests. Once these were read to validate the test performance, the QC fungi were read to insure they had expected results. These steps validated the test system. DMSO was used as a drug-chemical solvent. […] The 90% cut-off is necessary for azoles, which are static and not cidal. The […] or cidal level, was determined by sub-culturing a sample from each tube showing no growth.

Cryptococcus neoformans = assay: Anti-fungal activity, MFC (NCCLS M-27A based); type: cell-based; details: cidal level
Description: as §1

[1] = tested on: Human Herpes Virus 8 (HHV8); assay: Kaposi's sarcoma / HHV8 DNA copy number in TPA-induced BCBL-1 cells; type: cell-based; details: HHV8, BCBL-1 cells
Description: (§2) The DNA copy number and the toxicity value were measured and compared with Cidofovir. Kaposi's sarcoma (KS) is a cancer that is often found in people with weak immune systems, such as those taking immunosuppressants or those with AIDS. The exact nature of the disease is uncertain, but it is almost always found in association with HHV8.

[2] = Toxicity values in the HHV8 test; type: cell-based; details: human, TPA-induced BCBL-1 cells; read-out: TC50 (the source's name)
Description: (§3) Toxicity quantification involves the XTT-based evaluation. Assays were designed to characterize the long term effects of the compounds on virus production and to characterize the longer term effects of the compounds on virus production from chronically HIV infected cells.
as §2

TPA-induced BCBL-1 cells = assay: Toxicity values in the HHV8 test; type: cell-based
Description: as §3, §2

BVDV = BVDV testing in vitro; type: cell-based, bovine diarrhea virus; details: first test
Source text: DMSO had no effect, as expected.
BVDV is a bovine diarrhea virus and is a well known surrogate virus for hepatitis C which cannot be cultured in vitro.

Question: For `Nc1ccn([C@@H]2CS[C@H](CO)O2)c(=O)n1` [3TC, lamivudine, reference compound], which “% cell control” value (HEPG2 2.2.15; 0.0032 μg/ml) is on record?
Answer: Its value is 90.8%.

Question: And the “Toxicity Values, mean” value (HEPG2 2.2.15; 0.0032 μg/ml)?
Answer: The value was 1.137.

Question: And the “Toxicity Values, sample” value (HEPG2 2.2.15; 0.0032 μg/ml)?
Answer: Its value is 1.173 and 1.230 and 1.009.

Question: What about the “% cell control” value (HEPG2 2.2.15; 0.01 μg/ml) of the same compound?
Answer: Its value is 84.6%.

Question: What about the “Toxicity Values, mean” value (HEPG2 2.2.15; 0.01 μg/ml) of the same compound?
Answer: The value was 1.060.

Question: And the “Toxicity Values, sample” value (HEPG2 2.2.15; 0.01 μg/ml)?
Answer: Its value is 1.081 and 1.099 and 1.001.

Question: What about the “% cell control” value (HEPG2 2.2.15; 0.032 μg/ml) of the same compound?
Answer: The value was 94.3%.

Question: What about the “Toxicity Values, mean” value (HEPG2 2.2.15; 0.032 μg/ml) of the same compound?
Answer: Its value is 1.181.

Question: What about the “Toxicity Values, sample” value (HEPG2 2.2.15; 0.032 μg/ml) of the same compound?
Answer: The value was 1.153 and 1.316 and 1.074.

Question: What about the “Toxicity Values, mean” value (HEPG2 2.2.15; 0.1 μg/ml) of the same compound?
Answer: The value was 1.190.

Question: And the “% cell control” value (HEPG2 2.2.15; 0.32 μg/ml)?
Answer: The value was 93.6%.

Question: And the “Toxicity Values, mean” value (HEPG2 2.2.15; 0.32 μg/ml)?
Answer: The value was 1.172.

Question: And the “Toxicity Values, sample” value (HEPG2 2.2.15; 0.32 μg/ml)?
Answer: Its value is 1.207 and 1.227 and 1.082.

Question: What about the “% cell control” value (HEPG2 2.2.15; 1 μg/ml) of the same compound?
Answer: Its value is 106.5%.

Question: And the “Toxicity Values, mean” value (HEPG2 2.2.15; 1 μg/ml)?
Answer: The value was 1.334.

Question: What about the “Toxicity Values, sample” value (HEPG2 2.2.15; 1 μg/ml) of the same compound?
Answer: Its value is 1.256 and 1.322 and 1.423.

Question: And the TC50 (HEPG2 2.2.15; HEPG2 2.2.15)?
Answer: Its TC50 is > 1 µg/mL.

Question: And the TC50 (HEPG2 2.2.15; HEPG2 2.2.15, replicate experiment)?
Answer: The TC50 was > 1 µg/mL.

Question: What about the “DNA Copy Number (per 3 μl), sample” value (hepatitis B; 0.1 μg/ml) of the same compound?
Answer: The value was 73.0 per 3 μl.

Question: What about the “% virus control” value (hepatitis B; 1 μg/ml) of the same compound?
Answer: Its value is 1.4%.

Question: What about the “DNA Copy Number (per 3 μl), mean” value (hepatitis B; 1 μg/ml) of the same compound?
Answer: Its value is 4.0 per 3 μl.

Question: What about the IC50 (hepatitis B; Hepatitis B virus, HepG2 2.2.15) of the same compound?
Answer: The IC50 was 0.021 µg/mL (≈ 0.0916 µM).

Question: What about the IC50 (hepatitis B; hepatitis B, HEPG2 2.2.15) of the same compound?
Answer: The IC50 was 0.089 µg/mL (≈ 0.388 µM).

Question: For `Nc1nc2c(ncn2COCCO)c(=O)[nH]1` [Acyclovir, reference compound], which TC50 (vero cells) is on record?
Answer: Its TC50 is > 1.

Question: Which MIC (Curvularia lunata) does the source give for `C[C@@H]1[C@H](O)[C@@H](C)/C=C/C=C/C=C/C=C/C=C/C=C/C=C/[C@H](O[C@@H]2O[C@H](C)[C@@H](O)[C@H](N)[C@@H]2O)C[C@@H]2O[C@](O)(C[C@@H](O)C[C@@H](O)[C@H](O)CC[C@@H](O)C[C@@H](O)CC(=O)O[C@H]1C)C[C@H](O)[C@H]2C(=O)O` [AmB, amphotericin B] here?
Answer: The MIC was 0.06 µg/mL (≈ 0.0649 µM).

Question: And the MFC (Cryptococcus neoformans)?
Answer: Its MFC is 0.5 µg/mL (≈ 0.541 µM).

Question: Which results are given for `Nc1ccn(C[C@@H](CO)OCP(=O)(O)O)c(=O)n1` [Cidofovir, reference compound]?
Answer: TI [1]: TI = 19.2; CC50 [2]: 21.1 µM; % cell control (TPA-induced BCBL-1 cells; 0.08 μM): 83.9%; % cell control (TPA-induced BCBL-1 cells; 0.25 μM): 90.1%; % cell control (TPA-induced BCBL-1 cells; 0.8 μM): 82.8%; % cell control (TPA-induced BCBL-1 cells; 2.5 μM): 75.0%; % cell control (TPA-induced BCBL-1 cells; 8 μM): 69.3%; % cell control (TPA-induced BCBL-1 cells; 25 μM): 4403%

Question: Which MFC (Cryptococcus neoformans; read-out: MFC) does the source give for `CCC(C)n1ncn(-c2ccc(N3CCN(c4ccc(OCC5COC(Cn6cncn6)(c6ccc(Cl)cc6Cl)O5)cc4)CC3)cc2)c1=O` (stereo not shown) [Itra, Itraconazole] here?
Answer: The MFC was 32 µg/mL (≈ 45.3 µM).

Question: With `COC(=O)Nc1nc2ccccc2[nH]1` [Methyl, methyl 1,2-benzmimidazole carbamate or benomyl] as the compound, how does the MIC (Curvularia lunata) read?
Answer: The MIC was 0.03 µg/mL (≈ 0.157 µM).

Question: And the MFC (Cryptococcus neoformans)?
Answer: The MFC was 32 µg/mL (≈ 167 µM).

Question: Which “Antiviral Index (AI), TC50/IC50” value (BVDV) does the source give for `NC(=O)c1ncn([C@@H]2O[C@H](CO)[C@@H](O)[C@H]2O)n1` [Ribavirin, reference compound] here?
Answer: Its value is 2.25.

Question: Which MIC (Curvularia lunata; read-out: MIC) does the source give for `c1ccc2[nH]c(-c3cscn3)nc2c1` [Thia, thiabendazole] here?
Answer: The MIC was 0.03 µg/mL (≈ 0.149 µM).

Question: And the MFC (Cryptococcus neoformans; read-out: MFC)?
Answer: The MFC was 32 µg/mL (≈ 159 µM).
